Each structure is given as a SMILES string.

Consider nine compounds from patent US9139523B2, “5-HT2B receptor antagonists” (Janssen Pharmaceutica, NV, priority 2010, dated 2015).

One data set concerns the target T1, 5HT2A (Homo sapiens, UniProt P28223).
T1 construct: expressed in transfected cells; host or cells: NIH3T3 (membrane fraction)
In words: Competitive radioligand binding, 5HT2A. The note with it: NIH3T3 membranes, 3H-ketanserin 2 nM; read-out: pIC50 5HT2A (converted). On the procedure: (§1) Competitive radioligand binding assays were used to determine the affinity of the test compounds for a particular receptor. Various concentrations of the non-labelled test compound were added to the incubation mixture with the membrane fraction, containing the receptor of interest, and a fixed low concentration (nM) of the radioligand. During the incubation the radioligand bound to the receptor, but this was inhibited by the non-labelled test compound in proportion to its binding affinity and concentration.
(§2) Cell lines were established that stably express the human variant of the receptor under investigation after transfection with the appropriate cDNA (Table 1). Transfected cells were grown under standard culture conditions, and membrane fractions were obtained upon centrifugation and homogenisation of the cells. Optimal membrane dilutions for binding studies were determined and aliquots were stored at −70° C. until use. In a 96-well plate format, the appropriate radioligand was added to the membrane preparation containing the receptor under investigation. Compound solutions were prepared in DMSO, and diluted 100-fold into the multiwell plate to a final test concentration of 10^−9 to 10^−5 M. After incubation with the test compound, the unbound radioligand was removed by filtration on G/F filters with a Filtermate 96. Microscint™ was added to the washed filter plates and the radioactivity bound to the receptor was measured by liquid scintillation counting in a TopCount (Packard). To measure the Non-Specific Binding (NSB), a high concentration of the non-radiolabeled ligand was added to wells containing the membrane fraction and the radioligand.
From this, the pIC50 value (inhibitory concentration causing 50% displacement of specific binding) was determined, as well as an estimate of the slope of the plot (Hill coefficient).

A further data set addresses 5HT2B (Homo sapiens, UniProt P41595). The data set is described as follows: 5-HT2B antagonism, FLIPR intracellular calcium in transfected CHO-K1 cells. In kind it is cell-based. Also noted: expressed in transfected cells; host or cells: CHO-K1 (ECACC). The note with it: for IC50: CHO-K1 cells, response to 0.1 nM serotonin, Fluo-3 FLIPR; for Kb: modified Cheng Prusoff equation from IC50, read-out: 5-HT2B antagonism KB (apparent dissociation constant). Here is the method:
CHO-K1 (ECACC) cells were stably transfected with human 5-HT2B receptor cDNA subcloned into pCDNA3.1 using the calcium phosphate method. Stably transfected cell lines were selected using G-418, and clonal cell lines were developed by limit dilution. Cell lines were cultured in Dulbecco's modified Eagle Medium (DMEM) containing 10% heat inactivated dialyzed foetal bovine serum (FBS), 1% penicillin-streptomycin, 1% L-glutamine and 1% non-essential amino acids.
Confluent monolayers plated into black 96 well plates with clear bottoms were loaded with 4 μM Fluo-3-AM for 90 min at 37° C. in Hanks balanced salt solution supplemented with 20 mM HEPES and 2.5 mM probenecid. After washing, the test compound was added to the cells and maximal fluorescence in response to 0.1 nM serotonin was recorded using a fluorometric imaging plate reader (FLIPR) to detect changes in intracellular calcium levels.
The maximal fluorescence recorded in the presence of the test compound was expressed as a percent of the maximal fluorescence response to the agonist serotonin (0.1 nM). […] The apparent dissociation constant (KB) was calculated using the modified Cheng Prusoff equation (KB=IC50/(1+(A/EC50A)), where A=concentration of serotonin, and EC50A=EC50 value of serotonin in this assay). (Porter et al. (1999), Br. J. Pharmacol., 128: 13-20)
A general note: Calcium flux is commonly read through the fluorescence of an indicator in the cells.

In the next data set the target is T2, hERG potassium channel (Homo sapiens, UniProt Q12809).
T2 construct: expressed in transfected cells; host or cells: HEK293
T2 sequence (Q12809 whole entry): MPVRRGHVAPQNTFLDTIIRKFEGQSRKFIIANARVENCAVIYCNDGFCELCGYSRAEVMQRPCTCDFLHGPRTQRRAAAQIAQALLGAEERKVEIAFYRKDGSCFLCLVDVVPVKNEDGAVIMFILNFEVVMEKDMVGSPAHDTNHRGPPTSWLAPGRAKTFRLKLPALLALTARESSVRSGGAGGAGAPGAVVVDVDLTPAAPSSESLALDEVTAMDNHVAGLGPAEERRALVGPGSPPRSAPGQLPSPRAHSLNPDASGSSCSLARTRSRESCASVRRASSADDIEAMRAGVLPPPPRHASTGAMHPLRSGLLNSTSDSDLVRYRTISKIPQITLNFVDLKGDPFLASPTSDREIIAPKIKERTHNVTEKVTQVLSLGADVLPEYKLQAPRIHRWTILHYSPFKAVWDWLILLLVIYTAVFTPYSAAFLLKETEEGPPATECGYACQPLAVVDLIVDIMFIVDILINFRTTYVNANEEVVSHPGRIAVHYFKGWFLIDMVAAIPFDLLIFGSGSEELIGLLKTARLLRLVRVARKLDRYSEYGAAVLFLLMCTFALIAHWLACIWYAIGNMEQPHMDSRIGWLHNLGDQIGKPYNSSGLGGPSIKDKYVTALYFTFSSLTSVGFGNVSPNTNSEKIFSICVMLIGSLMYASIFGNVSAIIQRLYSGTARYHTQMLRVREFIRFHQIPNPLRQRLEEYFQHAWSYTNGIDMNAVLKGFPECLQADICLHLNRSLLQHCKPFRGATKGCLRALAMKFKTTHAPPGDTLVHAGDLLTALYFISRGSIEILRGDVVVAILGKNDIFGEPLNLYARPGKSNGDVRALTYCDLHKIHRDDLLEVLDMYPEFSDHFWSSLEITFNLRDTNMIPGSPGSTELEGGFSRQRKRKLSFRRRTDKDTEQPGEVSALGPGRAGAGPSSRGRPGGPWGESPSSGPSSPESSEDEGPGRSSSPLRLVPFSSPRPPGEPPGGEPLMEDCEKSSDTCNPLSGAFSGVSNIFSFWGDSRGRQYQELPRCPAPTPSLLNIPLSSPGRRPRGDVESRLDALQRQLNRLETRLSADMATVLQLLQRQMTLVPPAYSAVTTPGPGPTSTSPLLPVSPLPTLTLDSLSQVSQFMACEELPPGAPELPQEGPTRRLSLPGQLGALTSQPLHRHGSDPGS
The data set is described as follows: hERG-transfected HEK293 cells using a Patch Express apparatus. The data set is classed as cell-based. The note with it: bracketed value in cell = % block by vehicle. On the procedure:
Experiments were performed using HEK293 cells stably expressing the hERG potassium channel. Cells were grown at 37° C. and 5% CO2 in culture flasks in MEM Medium supplemented with 10% heat-inactivated fetal bovine serum, 1% L-Glutamine-Penicillin-Streptomycin-solution, 1% non-essential amino acids (100×), 1% sodium pyruvate (100 mM) and 0.8% Geneticin (50 mg/ml). Before use the cells were subcultured in MEM medium in the absence of 5 ml L-Glutamine-Penicillin-Streptomycin. For use in the automated patch-clamp system PatchXpress 7000A (Axon Instruments) cells were harvested to obtain cell suspension of single cells. Extracellular solution contained (mM): 150 NaCl, 4 KCl, 1 MgCl2, 1.8 CaCl2, 10 HEPES, 5 Glucose (pH 7.4 with NaOH). Pipette solution contained (mM): 120 KCl, 10 HEPES, 5 EGTA, 4 ATP-Mg2, 2 MgCl2, 0.5 CaCl2 (pH 7.2 with KOH).
Patch-clamp experiments were performed in the voltage-clamp mode and whole-cell currents were recorded with an automated patch-clamp assay utilizing the PatchXpress 7000A system (Axon Instruments). Current signals were amplified and digitized by a Multiclamp amplifier, stored and analyzed by using the PatchXpress, DataXpress software and Igor 5.0 (Wavemetrics).
The holding potential was −80 mV. The hERG current (K+-selective outward current) was determined as the maximal tail current at −40 mV after a 2 second depolarization to +60 mV. Pulse cycling rate was 15 s. Before each test pulse a short pulse (0.5 s) from the holding potential to −60 mV was given to determine (linear) leak current. After establishing whole-cell configuration and a stability period, the vehicle (aqueous DMSO control) was applied for 5 minutes followed by the test substance by increasing concentrations of 10^−7 M, 3×10^−7 M and 3×10^−6 M.
Each concentration of the test substance was applied twice. The effect of each concentration was determined after 5 min as an average current of 3 sequential voltage pulses. To determine the extent of block the residual current was compared with vehicle pre-treatment. Data are expressed as % block at the indicated concentrations in Table 4. The values between brackets refer to % block by the vehicle.
On the technique in general: The hERG channel carries a current that helps repolarise heart muscle cells.

The next data set has as its target T3, D2L (Homo sapiens, UniProt P14416).
T3 construct: expressed in transfected cells; host or cells: CHO (membrane fraction)
In words: Competitive radioligand binding, D2L. Conditions: CHO membranes, 3H-spiperone 0.2 nM; for IC50: read-out: pIC50 D2L (converted). On the procedure: as §1, §2
Using in house developed software, a best-fit curve was fitted by a minimum sum of squares method to the plot of % inhibition vs. concentration of the test compound. From this, the pIC50 value (inhibitory concentration causing 50% displacement of specific binding) was determined, as well as an estimate of the slope of the plot (Hill coefficient).

5HT2B, sequence (P41595 whole entry): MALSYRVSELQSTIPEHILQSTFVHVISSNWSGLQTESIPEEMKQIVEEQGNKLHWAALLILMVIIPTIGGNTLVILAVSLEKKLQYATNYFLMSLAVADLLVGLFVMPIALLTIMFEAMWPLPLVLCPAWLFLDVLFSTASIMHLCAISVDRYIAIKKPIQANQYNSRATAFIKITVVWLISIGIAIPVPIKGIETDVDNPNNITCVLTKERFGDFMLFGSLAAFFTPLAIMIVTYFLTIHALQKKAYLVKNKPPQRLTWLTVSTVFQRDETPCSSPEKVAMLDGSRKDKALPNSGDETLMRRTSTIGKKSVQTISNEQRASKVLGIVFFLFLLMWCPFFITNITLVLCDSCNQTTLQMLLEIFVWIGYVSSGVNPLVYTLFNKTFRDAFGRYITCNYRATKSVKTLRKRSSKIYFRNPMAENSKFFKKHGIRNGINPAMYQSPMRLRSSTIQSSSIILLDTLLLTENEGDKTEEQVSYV
T1 sequence (P28223 whole entry): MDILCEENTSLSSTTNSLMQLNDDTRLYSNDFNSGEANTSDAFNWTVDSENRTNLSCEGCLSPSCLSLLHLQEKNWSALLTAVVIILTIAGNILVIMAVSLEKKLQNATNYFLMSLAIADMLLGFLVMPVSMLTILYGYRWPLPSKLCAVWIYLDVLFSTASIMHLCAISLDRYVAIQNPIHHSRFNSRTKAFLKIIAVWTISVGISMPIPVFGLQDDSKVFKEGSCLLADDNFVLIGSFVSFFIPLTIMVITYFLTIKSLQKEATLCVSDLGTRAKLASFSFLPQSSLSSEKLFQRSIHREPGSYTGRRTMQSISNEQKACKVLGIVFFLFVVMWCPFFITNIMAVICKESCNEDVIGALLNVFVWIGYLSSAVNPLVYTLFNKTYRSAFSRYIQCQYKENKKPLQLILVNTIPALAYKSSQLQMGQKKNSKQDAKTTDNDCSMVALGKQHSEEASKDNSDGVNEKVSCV
T3 sequence (P14416 whole entry): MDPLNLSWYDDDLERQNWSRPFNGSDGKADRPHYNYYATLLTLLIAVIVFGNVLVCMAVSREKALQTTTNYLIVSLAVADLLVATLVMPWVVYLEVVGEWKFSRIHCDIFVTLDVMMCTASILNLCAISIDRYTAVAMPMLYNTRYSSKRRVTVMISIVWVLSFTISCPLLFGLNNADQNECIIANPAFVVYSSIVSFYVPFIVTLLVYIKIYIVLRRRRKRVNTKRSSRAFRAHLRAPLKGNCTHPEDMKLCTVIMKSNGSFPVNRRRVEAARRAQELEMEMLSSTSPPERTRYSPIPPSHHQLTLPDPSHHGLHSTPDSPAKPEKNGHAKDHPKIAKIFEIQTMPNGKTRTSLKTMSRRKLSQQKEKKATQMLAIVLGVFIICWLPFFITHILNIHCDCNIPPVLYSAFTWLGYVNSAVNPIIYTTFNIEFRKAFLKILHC

The term Kb denotes the affinity of an antagonist, worked out from how it opposes an agonist. As for `COc1cc(N)c(Cl)cc1C(=O)N[C@@H]1CCN(CCCOc2ccc(F)cc2)C[C@H]1F` (racemic) [(±)-7, trans-4-amino-5-chloro-N-{3-fluoro-1-[3-(4-fluorophenoxy)-propyl]-piperidin-4-yl}-2-methoxybenzamide], the IC50 at 5HT2A was 0.112 µM; at 5HT2B, 0.06 µM; at D2L, 4.57 µM. The Kb at 5HT2B amounted to 0.02 µM. Also, the “% block of the hERG channel” value on hERG potassium channel (100 nM) was 35 (7) %; at hERG potassium channel (300 nM) it was 62 (15) %; on hERG potassium channel (3000 nM), 94 (21) %.
In the case of `COc1cc(N)c(Cl)cc1C(=O)N[C@H]1CCN(CCCOc2ccc(F)cc2)C[C@H]1F` (racemic) [(±)-12, cis-4-amino-5-chloro-N-{3-fluoro-1-[3-(4-fluorophenoxy)-propyl]-piperidin-4-yl}-2-methoxybenzamide], the IC50 was 0.363 µM on 5HT2A, 0.012 µM at 5HT2B and 4.68 µM on D2L. Further, at 5HT2B, the Kb came to 0.0042 µM. Further, the “% block of the hERG channel” value at hERG potassium channel (100 nM) was 40 (7) %; on hERG potassium channel (300 nM), 73 (15) %; at hERG potassium channel (3000 nM) it was 96 (21) %.
As to `COc1cc(N)c(Cl)cc1C(=O)NC1CCN(CCCOc2ccc(F)cc2)CC1(F)F` (racemic) [(±)-17, 4-amino-5-chloro-N-{3,3-difluoro-1-[3-(4-fluorophenoxy)-propyl]-piperidin-4-yl}-2-methoxybenzamide], the IC50 at 5HT2A was 1.95 µM; at D2L it was 10.5 µM. Also, the “% block of the hERG channel” value at hERG potassium channel (100 nM) is reported as 9 (7) %; at hERG potassium channel (300 nM), 17 (15) %; on hERG potassium channel (3000 nM) it was 58 (21) %.
Regarding `COc1cc(N)c(Cl)cc1C(=O)N[C@@H]1CCN(CCCOc2ccc(F)cc2)C[C@H]1F` (single isomer, unassigned) [(+)-7, trans-4-amino-5-chloro-N-{3-fluoro-1-[3-(4-fluorophenoxy)-propyl]-piperidin-4-yl}-2-methoxybenzamide], the IC50 on 5HT2A was 0.0708 µM; at D2L it was 2.75 µM.
Turning to `COc1cc(N)c(Cl)cc1C(=O)N[C@H]1CCN(CCCOc2ccc(F)cc2)C[C@H]1F` (single isomer, unassigned) [(+)-12, cis-4-amino-5-chloro-N-{3-fluoro-1-[3-(4-fluorophenoxy)-propyl]-piperidin-4-yl}-2-methoxybenzamide], at 5HT2A, the IC50 was 0.324 µM. Besides, the “pIC50 D2L” value at D2L was found to be 5.32.
`COc1cc(N)c(Cl)cc1C(=O)N[C@@H]1CCN(CCCOc2ccc(F)cc2)C[C@H]1F` (single isomer, unassigned) [(−)-7, trans-4-amino-5-chloro-N-{3-fluoro-1-[3-(4-fluorophenoxy)-propyl]-piperidin-4-yl}-2-methoxybenzamide]: the IC50 at 5HT2A is 0.759 µM; at D2L, 7.94 µM.
For `COc1cc(N)c(Cl)cc1C(=O)N[C@H]1CCN(CCCOc2ccc(F)cc2)C[C@H]1F` (single isomer, unassigned) [(−)-12, cis-4-amino-5-chloro-N-{3-fluoro-1-[3-(4-fluorophenoxy)-propyl]-piperidin-4-yl}-2-methoxybenzamide], the IC50 on 5HT2A is 0.49 µM; at D2L, 4.79 µM.
For the compound `COc1cc(N)c(Cl)cc1C(=O)NC1CCN(CCCOc2ccc(F)cc2)CC1(F)F` (single isomer, unassigned) [Compound (−)-17, 4-amino-5-chloro-N-{3,3-difluoro-1-[3-(4-fluorophenoxy)-propyl]-piperidin-4-yl}-2-methoxybenzamide], the IC50 was 1.74 µM at 5HT2A and 0.0016 µM at 5HT2B. Also, on 5HT2B, the Kb was 0.00055 µM. In addition, the “% block of the hERG channel” value is 3 (7) % on hERG potassium channel (100 nM), 11 (10) % at hERG potassium channel (300 nM) and 47 (11) % on hERG potassium channel (3000 nM). Besides, the “pIC50 D2L” value on D2L is under 5.
For the compound `COc1cc(N)c(Cl)cc1C(=O)NC1CCN(CCCOc2ccc(F)cc2)CC1(F)F` (single isomer, unassigned; (+)) [(+)-17, 4-amino-5-chloro-N-{3,3-difluoro-1-[3-(4-fluorophenoxy)-propyl]-piperidin-4-yl}-2-methoxybenzamide], the IC50 on 5HT2A was 2.57 µM; on 5HT2B, 0.033 µM; at D2L, over 10 µM. Moreover, on 5HT2B, the Kb amounted to 0.011 µM. Further, the “% block of the hERG channel” value on hERG potassium channel (100 nM) is 14 (7) %; at hERG potassium channel (300 nM) it was 21 (10) %; on hERG potassium channel (3000 nM), 52 (11) %.
